Laboratory results published in patent publication US20010034352A1, “Piperidine-4 sulphonamide compounds” (priority 2000, published 2001).

Experiments:
Format in all cases: cell-based
[1] = test system: thoracic aorta rings of a Wistar rat; experiment: Vascular protective effects with respect to endothelial dysfunction induced by an inhibitor of NOS (LNA), ACh relaxation of aortic rings; details: compound at 3×10^−9 M, LNA 3.10^−7 M, difference between percentages of maximum ACh relaxation in presence or absence of product
Source text: Under standard in vitro conditions, relaxation of aortic rings caused by acetylcholine (ACh), which relaxation is totally dependent upon the presence of endothelium, reflects the production of NO (stimulated by ACh), which by diffusing to smooth muscle cells brings about arterial relaxation (Nature, 1980, 288, 373).
the first model consists of inducing inhibition of the relaxation due to ACh by blocking the enzymatic activity (endothelial NOS) responsible for the production of NO.
Vascular Protective Effects with Respect to Endothelial Dysfunction Induced by an Inhibitor of NOS
The thoracic aorta of a Wistar rat (325-375 g), anaesthetised by the intraperitoneal route using sodium pentobarbital (30 mg/kg), is removed and dissected into rings of 3 mm in length. […]
After a 90-minute stabilisation period, the preparations are contracted using phenylephrine (PHE 10^−6 M) and relaxed by adding 10^−5 M of acetylcholine in order to verify the 10 integrity of the endothelial layer. […] The preparations are again contracted using phenylephrine and, after 30 minutes, the relaxations due to acetylcholine (ACh—10^−8M to 10^−5 M) are assessed in the presence of indomethacin (10^−5M).
(§1) The relaxation values are expressed as a percentage relative to the maximum contraction caused by PHE. […]

[2] = test system: aortic rings of New Zealand rabbits; experiment: Vascular protective effects with respect to endothelial dysfunction induced by a system generating O2^− (XO-Hypo), ACh relaxation of aortic rings; details: compound at 3×10^−9 M; rabbit aortic rings; XO 3 mU/ml, Hypo 10^−4 M; difference between percentages of maximum ACh relaxation in presence or absence of product
Experimental: the second model consists of inducing oxidative stress in vitro using an enzymatic system that generates O2^− (xanthine oxidase —XO and hypoxanthine—Hypo).
The thoracic aorta of a Wistar rat (325-375 g), anaesthetised by the intraperitoneal route using sodium pentobarbital (30 mg/kg), is removed and dissected into rings of 3 mm in length. Each ring is suspended from an isometric tension sensor connected to a recording system and the initial tension applied is 2.5 g. The physiological solution used, which is thermostatically maintained at 37° C., and oxygenated (95% O2+5% CO2), comprises (in mM): NaCl 112.0, KCl 5.0, CaCl2 2.5, KH2PO4 1.0, MgSO4 1.2, NaHCO3 25.0, glucose 11.5, Ca-EDTA 0.016.
After a 90-minute stabilisation period, the preparations are contracted using phenylephrine (PHE 10^−6 M) and relaxed by adding 10^−5 M of acetylcholine in order to verify the 10 integrity of the endothelial layer. If that is confirmed, the preparations are rinsed and a concentration of the test product (or its solvent) is added to the medium, followed by 3.10^−7 M of N^G-nitro-L-arginine (LNA). The preparations are again contracted using phenylephrine and, after 30 minutes, the relaxations due to acetylcholine (ACh—10^−8M to 10^−5 M) are assessed in the presence of indomethacin (10^−5M).
as §1

cGMP in rat aortic rings = experiment: Assessment of aortic production of cGMP stimulated by ACh in the presence of LNA (radioimmunoassay); details: compound at 3×10^−9 M, 30-minute incubation, ACh 10^−5 M 1 minute, LNA 3×10^−6 M, isobutylmethylxanthine 10^−5 M
Experimental: Involvement of the NO Route in the Vascular Protective Effects Detected: Assessment of Aortic Production of cGMP
By diffusing to the smooth muscle cells, the NO produced by the endothelial cells activates soluble guanylate cyclase, which brings about an increase in cyclic GMP which is responsible for relaxation.
The rat aortic rings are prepared as previously. Assessment is made of the effects of a 30-minute incubation of the compounds of the invention at different concentrations on the production of cGMP stimulated by ACh (10^−5 M—1 minute) in the presence of LNA (3×10^−6 M). The experiments are carried out in the presence of isobutylmethylxanthine (10^−5 M) in order to avoid degradation of the cGMP by phosphodiesterases. The rings are frozen in liquid nitrogen and maintained at −80° C. until the assay is carried out. The cGMP content is assessed by radioimmunoassay and expressed in relation to the amount of protein contained in the tissue (assay by the Bradford method).

For `O=S(=O)(NC1CCN(CCc2coc3ccccc23)CC1)c1cccc2cnccc12` [Example 8, N-{1-[2-(Benzofuran-3-yl)ethyl]-4-piperidyl}-5-isoquinolinesulphonamide], the “inhibition of the endothelial dysfunction induced by LNA” value [1] was 23%, the “inhibition of the endothelial dysfunction induced by the XO-Hypo combination” value [2] was 28.3% and the “increase of the production of cGMP stimulated by ACh in the presence of LNA” value (cGMP in rat aortic rings) was 142.7%.
